Results from patent US9504251B2, “Pesticidal compositions and related methods” (Dow AgroSciences LLC, priority 2014, dated 2016).

Key:
[1] = system: Green Peach Aphid (Myzus persicae) (GPA) (MYZUPE); test: Green peach aphid (GPA) foliar spray bioassay on cabbage seedlings; format: in vivo; conditions: 72 h, 200 ppm foliar spray on cabbage seedlings, graded after three days, Abbott-corrected % control, disclosed compounds (TABLE 2), read-out: GPA % Control (or Mortality) rating
Description: Bioassay for GPA was prepared as follows: Cabbage seedlings grown in 3-inch pots, with 2-3 small (3-5 cm) true leaves, were used as test substrate. The seedlings were infested with 20-50 GPA (adult and nymph stages) one day prior to chemical application. Four pots with individual seedlings were used for each treatment. The tested compounds (2 mg) were dissolved in 2 mL of acetone/methanol (1:1) solvent to form stock solutions of 1000 ppm tested compound. The stock solutions were diluted five times with an aqueous solution containing 0.025% TWEEN® 20 surfactant, which is polyoxyethylene (20) sorbitan monolaurate, to obtain the solution at 200 ppm tested compound. A hand-held aspirator-type sprayer was used for spraying the solution to both sides of cabbage leaves until runoff. The control plants (solvent check) were sprayed with the diluent only containing 20% by volume of acetone/methanol (1:1) solvent. Treated plants were held in a holding room for three days at approximately 25° C. and ambient relative humidity (RH) prior to grading. Evaluation was conducted by counting the number of live aphids per plant under a microscope. Percent control was measured by using Abbott's correction formula (W. S. Abbott, “A Method of Computing the Effectiveness of an Insecticide,” J. Econ. Entomol. 18 (1925), pp. 265-267) as follows. Corrected % Control=100*(X−Y)/X
X=No. of live aphids on solvent check plants and
Y=No. of live aphids on treated plants
(§1) The comparative compounds were tested for insecticidal activities against GPA and WF pests using the same test protocols described above for the disclosed compounds.

[2] = system: Sweetpotato Whitefly-crawler (Bemisia tabaci) (WF) (BEMITA); test: Sweetpotato whitefly-crawler (WF) foliar spray assay on cotton plants; format: in vivo; conditions: 216 h, 200 ppm foliar spray on cotton plants, graded after 9 days, Abbott-corrected % control, disclosed compounds (TABLE 2), read-out: WF % Control (or Mortality) rating
Description: Foliar spray assay for WF was prepared as follows: Cotton plants (Gossypium hirsutum) grown in 3-inch pots, with 1 small (4-5 cm) true leaf, were used as test substrate. The plants were infested with 200-400 whitefly eggs 4-5 days prior to chemical application. Four pots with individual plants were used for each treatment. Tested compounds (2 mg) were dissolved in 1 mL of acetone solvent, forming stock solutions of 2000 ppm tested compound.
The stock solutions were diluted ten times with 0.025% TWEEN® 20 surfactant in H2O (diluents) to obtain the solution at 200 ppm tested compound. A hand-held aspirator-type sprayer was used for spraying the solution to both sides of cotton leaves until runoff. The control plants (solvent check) were sprayed with the diluent only containing 10% by volume of acetone solvent. Treated plants were held in a holding room for 9 days at approximately 25° C. and ambient relative humidity (RH) prior to grading. Evaluation was conducted by counting the number of live 3-4 nymph stage per plant under a microscope. Percent control was measured by using Abbott's correction formula (W. S. Abbott, “A Method of Computing the Effectiveness of an Insecticide,” J. Econ. Entomol. 18 (1925), pp. 265-267) as follows. Corrected % Control=100*(X−Y)/X
X=No. of live nymphs on solvent check plants and
Y=No. of live nymphs on treated plants.
as §1

For `O=C1c2cn(-c3cccnc3)nc2CCN1Cc1cccc(C(F)(F)F)c1` [Compound F29, 2-(3-Pyridyl)-5-[[3-(trifluoromethyl)phenyl]methyl]-6,7-dihydropyrazolo[4,3-c]pyridin-4-one], the mortality at 200 ppm [1] was 80 to 100% and the mortality at 200 ppm [2] was 80 to 100%.
Compound `O=C(CN1CCc2nn(-c3cccnc3)cc2C1=O)N1CCN(C2CCC2)CC1` [Compound F42, 5-[2-(4-Cyclobutylpiperazin-1-yl)-2-oxo-ethyl]-2-(3-pyridyl)-6,7-dihydropyrazolo[4,3-c]pyridin-4-one] has a mortality at 200 ppm [1] of 80 to 100% and a mortality at 200 ppm [2] of 80 to 100%.
With `CCOC(=O)CN1CCc2nn(-c3cccnc3)cc2C1=O` [Compound F8, ethyl 2-(4-oxo-2-(pyridin-3-yl)-6,7-dihydro-2H-pyrazolo[4,3-c]pyridin-5(4H)-yl)acetate] the mortality at 200 ppm [1] was 80 to 100% and the mortality at 200 ppm [2] was 80 to 100%.
`CON=C(CN1CCc2nn(-c3cccnc3)cc2C1=O)c1ccccc1` (single isomer, unassigned) [Compound P32, 5-(2-(methoxyimino)-2-phenylethyl)-2-(pyridin-3-yl)-2,5,6,7-tetrahydro-4H-pyrazolo[4,3-c]pyridin-4-one] was tested, and the mortality at 200 ppm [1] was 80 to 100% and the mortality at 200 ppm [2] was 0 to 80%.
For `O=C1c2cn(-c3cccnc3)nc2CCN1c1cncc(C(F)(F)F)c1` [Compound F21, 2-(3-Pyridyl)-5-[5-(trifluoromethyl)-3-pyridyl]-6,7-dihydropyrazolo[4,3-c]pyridin-4-one], the mortality at 200 ppm [1] was 80 to 100% and the mortality at 200 ppm [2] was 80 to 100%.
For `O=C1c2cn(-c3cccnc3)nc2CCN1CC1CC1` [Compound F1, 5-(cyclopropylmethyl)-2-(pyridin-3-yl)-6,7-dihydro-2H-pyrazolo[4,3-c]pyridin-4(5H)-one], the mortality at 200 ppm [1] was 80 to 100% and the mortality at 200 ppm [2] was 80 to 100%.
